Assay results as given in patent US12139487B2, “Compounds and uses thereof” (Foghorn Therapeutics Inc., priority 2022, dated 2024).

Key:
BRM = molecular target: T1, BRM (Homo sapiens, UniProt P51531); assay: ATPase catalytic activity assay (ADP-Glo), BRM; assay type: biochemical; details: Table 10; for Ratio (BRG1 IC50 (μM) divided by BRM IC50 (μM)): ATPase assay, selectivity BRG1/BRM; for IC50: ATPase catalytic activity assay (ADP-Glo)
T1 construct: made in house; host or cells: High Five insect cells
Procedure, shortened: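 Reaction holds 30 nM BRM, 20 nM salmon sperm DNA and 400 μM ATP in 20 mM Tris pH 8, 20 mM MgCl2, 50 mM NaCl, 0.1% Tween-20, 1 mM DTT. Incubated 1 h at room temperature. ADP formed is detected by ADP-Glo luminescence.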

BRG-1 = molecular target: T2, BRG-1 (Homo sapiens, UniProt P51532); assay: ATPase catalytic activity assay (ADP-Glo), BRG-1; assay type: biochemical; details: Table 10, read-out: BRG1 IC50
T2 construct: made in house; host or cells: High Five insect cells
Procedure, shortened: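 BRG-1 ATPase activity was measured by ADP-Glo. Unconsumed ATP was depleted for 40 min at room temperature, then ADP was converted to ATP for 60 min and read as luminescence.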

[1] = tested on: uveal melanoma and hematologic cancer cell lines versus other tested cell lines; assay: Growth of uveal melanoma, hematological and other cancer cell lines with Compound A (Cell-titer glo, day 3 and day 7, GI50); assay type: cell-based; details: day 7
Experimental: (§1) Procedure: Uveal melanoma cell lines (92-1, MP41, MP38, MP46), prostate cancer cell lines (LNCAP), lung cancer cell lines (NCI-H1299), and immortalized embryonic kidney lines (HEK293T) were plated into 96 well plates with growth media (see Table 9). […] Cells were incubated at 37 degrees Celsius for 3 days. After three days of treatment, the media was removed from the cells and 30 microliters of TrypLE (Gibco) was added to cells for 10 minutes. Cells were detached from the plates and resuspended with the addition of 170 microliters of growth media. Cells from two DMSO-treated control wells were counted, and the initial number of cells plated at the start of the experiment, were re-plated into fresh-compound containing plates for an additional four days at 37 degrees Celsius. At day 7, cells were harvested as described above. On day 3 and day 7, relative cell growth was measured by the addition of Cell-titer glo (Promega) and luminescence was measured on an Envision plate reader (Perkin Elmer). […] At the time of cell splitting on days 3 and 7, cells were split into new 96 well plates, and fresh compound was added four hours after re-plating.

[2] = tested on: uveal melanoma cell lines 92-1 and MP41; assay: Comparison of Compound A with clinical PKC and MEK inhibitors in uveal melanoma cell lines (3 day growth); assay type: cell-based; details: vs LXS196 and Selumetinib
Experimental: Procedure: Uveal melanoma cell lines, 92-1 or MP41, were plated in 96 well plates in the presence of growth media (see […]). […] Cells were incubated at 37 degrees Celsius for 3 days. After three days of treatment, cell growth was measured with Cell-titer glow (Promega), and luminescence was read on an Envision plate reader (Perkin Elmer).

[3] = tested on: uveal melanoma cell lines (92-1, MP41, MP38, MP46); assay: Growth of uveal melanoma and non-small cell lung cancer cell lines (3 day, Cell-titer glow); assay type: cell-based; details: 3 days; 0 to 10 micromolar; FIG. 5
Experimental: Procedure: Uveal melanoma cell lines (92-1, MP41, MP38, MP46) and Non-small cell lung cancer cells (NCIH1299) were plated into 96 well plates with growth media (see Table 9). BRG1/BRM ATPase inhibitor, compound 67, was dissolved in DMSO and added to the cells in a concentration gradient from 0 to 10 micromolar at the time of plating. Cells were incubated at 37° C. for 3 days. After three days of treatment, cell growth was measured with Cell-titer glow (Promega), and luminescence was read on an Envision plate reader (Perkin Elmer).

[4] = tested on: uveal melanoma, hematologic cancer, prostate cancer, breast cancer and Ewing's sarcoma cell lines versus other tested cell lines; assay: Growth of uveal melanoma, hematological, prostate, breast cancer and Ewing's sarcoma cell lines with Compound B (day 3 and day 7); assay type: cell-based
Experimental: as §1
Procedure: All cell lines described above in Example 4 were also tested as described above with Compound B. In addition, the following cell lines were also tested as follows. […]

[5] = tested on: parental MP41 and PKCi-resistant MP41 uveal melanoma cells; assay: 7-day growth inhibition assay in parental and PKC inhibitor-resistant MP41 cells; assay type: cell-based
Experimental: Procedure: MP41 uveal melanoma cells were made resistant to the PKC inhibitor (LXS196; MedChemExpress), by long-term culture in growth media (see Table 9) containing increasing concentrations of the compound, up to 1 micromolar. After 3 months, sensitivity of the parental MP41 cells and the PKC inhibitor (PKCi)-resistant cells to the PKC inhibitor (LXS196) or the BRG1/BRM ATPase inhibitor (Compound B) was tested in a 7-day growth inhibition assay as described above in Example 6.

[6] = tested on: uveal melanoma cell lines 92-1 and MP41; assay: Comparison of Compound B with clinical PKC and MEK inhibitors in uveal melanoma cell lines (3 day growth); assay type: cell-based; details: vs LXS196 and Selumetinib
Experimental: Procedure: Uveal melanoma cell lines, 92-1 or MP41, were plated in 96 well plates in the presence of growth media (see Table 9). BAF ATPase inhibitor (Compound B), PKC inhibitor (LXS196; MedChemExpress), and MEK inhibitor (Selumetinib; Selleck Chemicals) were dissolved in DMSO and added to the cells in a concentration gradient from 0 to 10 micromolar at the time of plating. Cells were incubated at 37° C. for 3 days. After three days of treatment, cell growth was measured with Cell-titer glow (Promega), and luminescence was read on an Envision plate reader (Perkin Elmer).

[7] = tested on: 92-1 uveal melanoma cells (subcutaneous tumors); assay: 92-1 uveal melanoma xenograft tumor growth in nude mice; assay type: in vivo; details: 3 weeks
Experimental: Procedure: Nude mice (Envigo) were engrafted subcutaneously in the axillary region with 5×10^6 92-1 uveal melanoma cells in 50% Matrigel. Tumors were grown to a mean of ˜200 mm^3, at which point mice were grouped and dosing was initiated. Mice were dosed once daily by oral gavage with vehicle (20% 2-Hydroxypropyl-β-Cyclodextrin) or increasing doses of Compound C. Tumor volumes and body weights were measured over the course of 3 weeks, and doses were adjusted by body weight to achieve the proper dose in terms of mg/kg. At this time, animals were sacrificed, and tumors were dissected and imaged.

T1 sequence (P51531 whole entry): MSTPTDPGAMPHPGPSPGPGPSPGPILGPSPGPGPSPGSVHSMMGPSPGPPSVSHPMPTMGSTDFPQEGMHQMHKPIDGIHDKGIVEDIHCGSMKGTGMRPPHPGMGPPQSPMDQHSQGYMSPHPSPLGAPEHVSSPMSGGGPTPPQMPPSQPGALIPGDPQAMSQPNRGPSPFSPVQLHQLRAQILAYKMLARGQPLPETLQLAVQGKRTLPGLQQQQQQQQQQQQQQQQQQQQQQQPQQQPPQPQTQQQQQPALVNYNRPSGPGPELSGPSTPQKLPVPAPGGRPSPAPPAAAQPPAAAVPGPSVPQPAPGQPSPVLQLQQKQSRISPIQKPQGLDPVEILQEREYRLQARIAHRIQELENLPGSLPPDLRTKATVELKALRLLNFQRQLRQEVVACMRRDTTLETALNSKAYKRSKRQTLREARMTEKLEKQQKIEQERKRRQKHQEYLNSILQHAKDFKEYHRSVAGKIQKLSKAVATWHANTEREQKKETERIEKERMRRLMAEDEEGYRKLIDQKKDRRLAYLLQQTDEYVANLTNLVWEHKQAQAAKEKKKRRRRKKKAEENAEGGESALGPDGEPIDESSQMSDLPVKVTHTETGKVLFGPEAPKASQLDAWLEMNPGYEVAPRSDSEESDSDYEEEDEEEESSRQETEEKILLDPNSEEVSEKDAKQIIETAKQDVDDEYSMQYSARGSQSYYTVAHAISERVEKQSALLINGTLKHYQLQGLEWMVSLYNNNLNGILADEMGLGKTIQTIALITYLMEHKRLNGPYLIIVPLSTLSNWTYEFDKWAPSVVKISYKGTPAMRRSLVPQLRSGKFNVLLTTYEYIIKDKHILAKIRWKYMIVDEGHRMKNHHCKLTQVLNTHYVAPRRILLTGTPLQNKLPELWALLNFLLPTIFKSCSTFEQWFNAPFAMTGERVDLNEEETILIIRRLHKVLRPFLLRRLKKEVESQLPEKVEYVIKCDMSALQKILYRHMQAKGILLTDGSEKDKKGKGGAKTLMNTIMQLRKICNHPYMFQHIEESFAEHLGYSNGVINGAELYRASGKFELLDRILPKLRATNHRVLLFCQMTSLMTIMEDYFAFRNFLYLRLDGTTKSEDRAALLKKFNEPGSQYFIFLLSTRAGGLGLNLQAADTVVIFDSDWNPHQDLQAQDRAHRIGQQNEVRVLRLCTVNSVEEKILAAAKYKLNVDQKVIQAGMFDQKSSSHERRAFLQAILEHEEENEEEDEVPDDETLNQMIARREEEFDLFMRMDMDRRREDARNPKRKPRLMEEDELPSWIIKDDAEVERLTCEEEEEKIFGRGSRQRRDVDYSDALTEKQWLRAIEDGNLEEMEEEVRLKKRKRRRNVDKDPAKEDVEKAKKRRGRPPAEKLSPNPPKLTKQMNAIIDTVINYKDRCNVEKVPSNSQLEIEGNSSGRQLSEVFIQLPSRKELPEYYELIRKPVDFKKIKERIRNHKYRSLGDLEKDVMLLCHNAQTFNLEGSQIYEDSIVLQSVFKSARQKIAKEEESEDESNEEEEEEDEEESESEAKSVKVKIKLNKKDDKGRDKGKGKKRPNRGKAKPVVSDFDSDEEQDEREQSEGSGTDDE
T2 sequence (P51532 whole entry): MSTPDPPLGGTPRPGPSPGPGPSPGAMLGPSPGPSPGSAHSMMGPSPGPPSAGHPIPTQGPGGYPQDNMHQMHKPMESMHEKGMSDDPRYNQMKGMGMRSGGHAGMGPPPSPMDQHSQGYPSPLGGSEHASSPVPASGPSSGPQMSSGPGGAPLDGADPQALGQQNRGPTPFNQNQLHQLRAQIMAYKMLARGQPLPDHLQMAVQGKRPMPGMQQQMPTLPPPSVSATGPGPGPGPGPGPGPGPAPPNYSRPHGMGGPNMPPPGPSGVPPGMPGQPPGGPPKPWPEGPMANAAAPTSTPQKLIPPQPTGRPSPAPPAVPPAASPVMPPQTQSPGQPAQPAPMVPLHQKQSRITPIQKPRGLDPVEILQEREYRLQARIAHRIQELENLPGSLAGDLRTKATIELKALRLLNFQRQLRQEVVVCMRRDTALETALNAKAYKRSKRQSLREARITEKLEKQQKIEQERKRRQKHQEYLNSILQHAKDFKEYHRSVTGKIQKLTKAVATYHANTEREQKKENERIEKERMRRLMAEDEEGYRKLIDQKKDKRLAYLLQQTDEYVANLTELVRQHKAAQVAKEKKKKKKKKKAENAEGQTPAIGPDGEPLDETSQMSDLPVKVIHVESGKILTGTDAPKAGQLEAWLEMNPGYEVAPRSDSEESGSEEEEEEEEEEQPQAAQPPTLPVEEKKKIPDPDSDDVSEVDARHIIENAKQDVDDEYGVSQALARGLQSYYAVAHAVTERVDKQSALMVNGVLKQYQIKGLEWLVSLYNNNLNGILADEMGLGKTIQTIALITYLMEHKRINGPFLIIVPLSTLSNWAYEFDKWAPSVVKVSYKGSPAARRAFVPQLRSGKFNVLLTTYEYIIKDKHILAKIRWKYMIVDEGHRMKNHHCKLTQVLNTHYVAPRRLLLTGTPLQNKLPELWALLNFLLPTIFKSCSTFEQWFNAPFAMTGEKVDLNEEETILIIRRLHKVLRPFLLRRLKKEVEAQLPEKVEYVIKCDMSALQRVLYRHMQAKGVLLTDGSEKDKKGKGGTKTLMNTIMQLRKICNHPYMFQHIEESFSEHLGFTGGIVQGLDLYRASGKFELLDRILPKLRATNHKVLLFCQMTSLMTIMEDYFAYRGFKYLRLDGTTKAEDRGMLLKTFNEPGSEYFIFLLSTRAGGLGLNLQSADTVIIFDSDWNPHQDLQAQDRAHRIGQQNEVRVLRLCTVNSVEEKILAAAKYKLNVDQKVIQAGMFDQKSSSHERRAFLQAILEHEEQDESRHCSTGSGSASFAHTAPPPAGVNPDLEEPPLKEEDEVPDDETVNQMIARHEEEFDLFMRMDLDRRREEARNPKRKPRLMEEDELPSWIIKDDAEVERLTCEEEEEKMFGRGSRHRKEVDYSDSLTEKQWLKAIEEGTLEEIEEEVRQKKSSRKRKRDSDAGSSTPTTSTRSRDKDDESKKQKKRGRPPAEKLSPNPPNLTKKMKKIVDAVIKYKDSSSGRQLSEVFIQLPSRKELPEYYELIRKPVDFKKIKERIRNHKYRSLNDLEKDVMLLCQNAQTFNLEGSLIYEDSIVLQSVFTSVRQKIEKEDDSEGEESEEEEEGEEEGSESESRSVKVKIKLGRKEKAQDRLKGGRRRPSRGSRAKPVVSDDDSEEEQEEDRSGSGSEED

C[C@@H]1CN(c2cccc(-c3ccc4cnc(CNC(=O)c5ccc6c(c5)S(=O)(=O)[C@@H](F)CCN6C)cc4n3)n2)C[C@H](C)O1 [Compound 318]
Ratio (BRG1 IC50 (μM) divided by BRM IC50 (μM)) (BRM): 8.51
IC50 (BRM): 12.3 nM
IC50 (BRG-1): 105 nM

C[C@@H]1CN(c2cccc(-c3ccc4cnc(CNC(=O)c5ccc6c(c5)S(=O)(=O)[C@H](F)CCN6C)cc4n3)n2)C[C@H](C)O1 [Compound 319]
Ratio (BRG1 IC50 (μM) divided by BRM IC50 (μM)) (BRM): 25.94
IC50 (BRM): 192 nM
IC50 (BRG-1): 4990 nM

COc1cccc(-c2ccc3cnc(CNC(=O)c4cc(Cl)c5c(c4)S(=O)(=O)[C@@H](F)CCO5)cc3n2)n1 [Compound 322]
Ratio (BRG1 IC50 (μM) divided by BRM IC50 (μM)) (BRM): 30.39
IC50 (BRM): 32.2 nM
IC50 (BRG-1): 1180 nM

O=C(NCc1cc2nc(N3CCOc4cc(N5CC[C@H]5CF)cnc43)ccc2cn1)c1cc(Br)c2c(c1)S(=O)(=O)[C@@H](F)CCO2 [Compound 323]
Ratio (BRG1 IC50 (μM) divided by BRM IC50 (μM)) (BRM): 13.90
IC50 (BRM): 11.8 nM
IC50 (BRG-1): 164 nM

Cc1cc(C(=O)NCc2cc3nc(-c4ccc(OC(F)F)c(C5CC5)n4)ccc3cn2)cc2c1OCC[C@H](F)S2(=O)=O [Compound 324]
Ratio (BRG1 IC50 (μM) divided by BRM IC50 (μM)) (BRM): 22.15
IC50 (BRM): 16.1 nM
IC50 (BRG-1): 357 nM

C[C@@H]1CN(c2cccc(-c3ccc4cnc(CNC(=O)c5cc(F)c6c(c5)S(=O)(=O)[C@@H](F)CO6)cc4n3)n2)C[C@H](C)O1 [Compound 326]
Ratio (BRG1 IC50 (μM) divided by BRM IC50 (μM)) (BRM): 28.75
IC50 (BRM): 122 nM
IC50 (BRG-1): 3510 nM

O=C(NCc1cc2nc(-c3cccc(C4CC4)n3)ccc2cn1)c1cc(F)c2c(c1)S(=O)(=O)[C@@H](F)CCOC2 [Compound 327]
IC50 (BRM): 3.5 nM
IC50 (BRG-1): 40.7 nM

COc1nc([C@@H](C)C(F)F)ccc1-c1ccc2cnc(CNC(=O)c3cc(F)c4c(c3)S(=O)(=O)[C@@H](F)CCO4)cc2n1 [Compound 328]
Ratio (BRG1 IC50 (μM) divided by BRM IC50 (μM)) (BRM): 29.97
IC50 (BRM): 24.1 nM
IC50 (BRG-1): 723 nM

CSCC[C@H](NC(=O)c1ccc(N)cc1)C(=O)Nc1nc(-c2cccc(-c3ccncc3)c2)cs1 [Compound A]
duration of growth inhibition [1]: maintained through day 7
growth inhibition compared with clinical PKC and MEK inhibitors ([2]; 3 days, FIG. 2A, 2B): comparable growth inhibition
onset of inhibition compared with clinical PKC and MEK inhibitors [2]: faster onset of inhibition

CSCC[C@H](NC(=O)c1ccn(S(C)(=O)=O)c1)C(=O)Nc1nc(-c2cccc(-c3ccncc3)c2)cs1 [Compound B, (S)-1-(methylsulfonyl)-N-(4-(methylthio)-1-oxo-1-((4-(3-(pyridin-4-yl)phenyl)thiazol-2-yl)amino)butan-2-yl)-1H-pyrrole-3-carboxamide]
growth inhibition in uveal melanoma cell lines [3]: potent growth inhibition
sensitivity of cell lines to BRG1/BRM inhibition (growth) ([4]; breast cancer and Ewing's sarcoma cell lines vs other tested cell lines, FIG. 3): more sensitive to BRG1/BRM inhibition than the other tested cell lines
duration of growth inhibition ([4]; breast cancer and Ewing's sarcoma cell lines, day 7): maintained through day 7
sensitivity of PKCi-resistant cells relative to parental MP41 cells ([5]; FIG. 7B): more sensitive to Compound B than were the parental MP41 cells
growth inhibition of PKCi-resistant and parental cell lines ([5]; both PKCi-resistant and parental MP41, FIG. 7B): strong growth inhibition
growth inhibition compared with clinical PKC and MEK inhibitors ([6]; 3 days, FIG. 6A, 6B): more potent effects on growth inhibition
onset of growth inhibition compared with clinical PKC and MEK inhibitors [6]: faster onset of growth inhibition

C[C@@H]1CN(c2cccc(-c3csc(NC(=O)CNC(=O)c4ccn(C(C)(C)C)c4)n3)n2)C[C@H](C)O1 [Compound C, 1-(tert-butyl)-N-(2-((4-(6-(cis-2,6-dimethylmorpholino)pyridin-2-yl)thiazol-2-yl)amino)-2-oxoethyl)-1H-pyrrole-3-carboxamide]
tumor response at the highest dose ([7]; 50 mg/kg, once daily oral gavage): tumor regression
tolerability / body weight ([7]; all treatments, FIG. 8C): well tolerated with no body weight loss observed
tumor growth inhibition ([7]; once daily oral gavage, increasing doses, FIG. 8A, 8B): tumor growth inhibition in a dose-dependent manner

CC1(N)CCN(c2cccnc2NC(=O)c2nc(-c3ncccc3C(F)(F)F)cnc2N)CC1 [LXS196]
growth of PKCi-resistant cells relative to parental MP41 cell line ([5]; FIG. 7A): could tolerate growth at higher concentrations of LXS196
